Literature values as cited in patent publication US20110081780A1, “AQUEOUS DISPERSION FOR CHEMICAL MECHANICAL POLISHING AND CHEMICAL MECHANICAL POLISHING METHOD” (JSR CORPORATION, priority 2008, published 2011).

Details: 25° C.; second carboxyl group if two carboxyl groups, third if three or more

Which pKa does the source give for `O=C(O)[C@@H]1CCCCC[C@H]1C(=O)O` (relative stereo) [1,2-Cycloheptanedicarboxylic acid (trans)] here?
Its pKa is 6.18.

Which pKa does the source give for `O=C(O)[C@@H]1CCCCCC[C@H]1C(=O)O` (relative stereo) [1,2-Cyclooctanedicarboxylic acid (trans)] here?
The pKa was 6.24.

Which pKa does the source give for `O=C(O)[C@H]1CCCCC[C@H]1C(=O)O` [1,2-Cycloheptanedicarboxylic acid (cis)] here?
Its pKa is 7.60.

With `O=C(O)[C@H]1CCCCCC[C@H]1C(=O)O` [1,2-Cyclooctanedicarboxylic acid (cis)] as the compound, how does the pKa read?
Its pKa is 7.34.

With `CCC(CC)(C(=O)O)C(=O)O` [2,2-Diethylmalonic acid] as the compound, how does the pKa read?
The pKa was 7.42.

With `CC(C)C(C(=O)O)(C(=O)O)C(C)C` [2,2-Diisopropylmalonic acid] as the compound, how does the pKa read?
The pKa was 8.85.

With `CC(C)(C)C(C(=O)O)C(C(=O)O)C(C)(C)C` (stereo not drawn) [2,3-Di-t-butylsuccinic acid] as the compound, how does the pKa read?
The pKa was 10.26.

With `CCC(C(=O)O)C(CC)C(=O)O` (stereo not drawn) [2,3-Diethylsuccinic acid] as the compound, how does the pKa read?
Its pKa is 6.46.

Which pKa does the source give for `CC(C(=O)O)C(C)C(=O)O` (stereo not drawn) [2,3-Dimethylsuccinic acid] here?
Its pKa is 6.00.

Which pKa does the source give for `CCC(CC)C(CC)(CCC(=O)O)C(=O)O` (stereo not drawn) [2-Ethyl-2-(1-ethylpropyl)glutaric acid] here?
The pKa was 7.31.

With `CCC(C)(C(=O)O)C(=O)O` [2-Ethyl-2-methylmalonic acid] as the compound, how does the pKa read?
The pKa was 6.55.

For `CCC(C(=O)O)C(C)C(=O)O` (stereo not drawn) [2-Ethyl-3-methylsuccinic acid], which pKa is on record?
Its pKa is 6.10.

For `CCC(C(=O)O)C(=O)O` [2-Ethylmalonic acid], which pKa is on record?
The pKa was 5.81.

For `CC(C)C(C(=O)O)C(=O)O` [2-Isopropylmalonic acid], which pKa is on record?
Its pKa is 5.88.

With `CC1CCCCC1(CC(=O)O)CC(=O)O` (stereo not drawn) [2-Methylcyclohexyl-1,1-diacetic acid] as the compound, how does the pKa read?
The pKa was 6.89.

With `CC(C(=O)O)C(=O)O` [2-Methylmalonic acid] as the compound, how does the pKa read?
Its pKa is 5.76.

With `CCC(CC)(CC(=O)O)CC(=O)O` [3,3-Diethylglutaric acid] as the compound, how does the pKa read?
Its pKa is 7.42.

Which pKa does the source give for `CC(C)C(CC(=O)O)(CC(=O)O)C(C)C` [3,3-Diisopropylglutaric acid] here?
The pKa was 7.68.

Which pKa does the source give for `CC(C)(CC(=O)O)CC(=O)O` [3,3-Dimethylglutaric acid] here?
Its pKa is 6.45.

For `CCCC(CCC)(CC(=O)O)CC(=O)O` [3,3-Dipropylglutaric acid], which pKa is on record?
The pKa was 7.48.

With `CCC(CC(=O)O)(CC(=O)O)c1ccccc1` [3-Ethyl-3-phenylglutaric acid] as the compound, how does the pKa read?
Its pKa is 6.95.

Which pKa does the source give for `CC(C)C(C)(CC(=O)O)CC(=O)O` [3-Isopropyl-3-methylglutaric acid] here?
Its pKa is 6.92.

For `CCC(C)(CC(=O)O)CC(=O)O` [3-Methyl-3-ethylglutaric acid], which pKa is on record?
The pKa was 6.70.

Which pKa does the source give for `CC(CC(=O)O)(CC(=O)O)c1ccccc1` [3-Methyl-3-phenylglutaric acid] here?
Its pKa is 6.17.

Which pKa does the source give for `CC(C)(C)C(C)(CC(=O)O)CC(=O)O` [3-t-Butyl-3-methylglutaric acid] here?
Its pKa is 7.49.

With `O=C(O)CC1(CC(=O)O)CCCCC1` [Cyclohexyl-1,1-diacetic acid] as the compound, how does the pKa read?
The pKa was 7.08.

For `O=C(O)CC1(CC(=O)O)CCCC1` [Cyclopentyl-1,1-diacetic acid], which pKa is on record?
Its pKa is 6.77.

Which pKa does the source give for `O=C(O)CC(C(=O)O)c1ccccc1` (stereo not drawn) [Phenylsuccinic acid] here?
Its pKa is 5.55.

Which pKa does the source give for `CC(C)(C(=O)O)C(C)(C)C(=O)O` [Tetramethylsuccinic acid] here?
Its pKa is 7.41.

Which pKa does the source give for `O=C(O)c1cccc(O)c1` [m-Hydroxvbenzoic acid] here?
Its pKa is 9.96.

Which pKa does the source give for `O=C(O)c1ccc(O)cc1` [p-Hydroxybenzoic acid] here?
Its pKa is 9.46.

Details: commercially available products

For “2,4,7,9-tetramethyl-5-decyne-4,7-diol-dipolyoxyethylene ethers [Surfynol 465]”, which HLB value is on record?
Its HLB value is 13.

Which HLB value does the source give for “2,4,7,9-tetramethyl-5-decyne-4,7-diol-dipolyoxyethylene ethers [Surfynol 485]” here?
The HLB value was 17.
